For test [1] the following is noted: cited from earlier work.
The nature of test [2]: Antiradical efficiency (kinetic study via DPPH assay). Conditions: for AE (antiradical efficiency): AE = 1/EC50.TEC50, DPPH; for Classification of antiradical efficiency: according to Sanchez-Moreno, from AE value; for TEC50: time needed to reach the steady state at the EC50 concentration, DPPH. As to the method: The reaction between potential antioxidants and the oxidized substrate requires a steady state which will depend on several parameters, such as the reaction time. The time needed to reach the steady state, at the concentration corresponding to EC50, is more and more frequently used and can be defined as TEC50. In brief, TEC50 was determined by plotting the recorded absorbance during the period for the EC50 concentration for the considered antioxidant compound. […] The antiradical efficiency of compounds and their classification are considered according to the work of Sanchez-Moreno [69].

Test [3] concerns the target T1, horseradish peroxidase (HRP) (Armoracia rusticana, UniProt P00433).
T1 sequence (P00433 31-338 limits assumed): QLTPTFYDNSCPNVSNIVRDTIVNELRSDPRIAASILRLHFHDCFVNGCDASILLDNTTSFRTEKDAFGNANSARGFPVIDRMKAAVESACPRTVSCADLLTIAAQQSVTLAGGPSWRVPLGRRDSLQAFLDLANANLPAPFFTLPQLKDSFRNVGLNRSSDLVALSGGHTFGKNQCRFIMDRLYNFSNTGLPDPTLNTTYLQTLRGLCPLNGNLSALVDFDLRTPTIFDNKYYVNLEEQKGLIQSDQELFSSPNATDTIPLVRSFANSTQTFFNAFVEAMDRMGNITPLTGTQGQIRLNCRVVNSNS
Briefly: biochemical. As to conditions: for EC50: HRP-H2O2/L-012 system, pH 7.5, 37 °C, 30 min, read-out: EC50 chemiluminescence assay; for Effect on chemiluminescence at lowest concentrations: 1, 5, and 10 µM, HRP-H2O2/L-012. It counts as biochemical. On the procedure:
To investigate the effect of selected palladium (II)-based complexes on the peroxidase (HRP)-catalyzed oxidation of the chemiluminescent probe (L-012), in the presence of hydrogen peroxide (H2O2), the chemiluminescence technique was used. Briefly, plate-reader-based luminescence measurements were performed in white 96-well plates using a Fluoroskan Ascent FL microplate reader (Thermo Labsystems, Vantaa, Finland), with the temperature set at 37 °C. To 5 µL of a stock solution of HRP (1 mg/mL) in phosphate buffer (pH = 7.5) per well, we successively added 10 µL of L-012 (aqueous solution, 0.84 mmoL) and 2 µL of tested compound in 163 µL of buffer solution. The reaction was triggered by adding 20 µL hydrogen peroxide (0.19 µM) to reach the final volume of 200 µL. The light emission, produced from oxidation of L-012 by HRP/H2O2 system, in the presence or absence of the tested palladium complex, was recorded in kinetic mode for 30 min. Inhibition of the emitted light due to tested complexes was associated with higher activity. The following formula was applied to calculate the inhibiting activity of complexes towards the oxidation of L-012 catalyzed by the HRP/H2O2 system:% inhibition = (L control − L Sample) x 100/L Control
(§1) Results were expressed as mean values ± standard deviation (SD). All measurements were replicated three times. EC50 values were calculated with GraphPad Prism 6.0 (GraphPad Software, San Diego, CA, USA) under the application of the function “log (inhibitor) versus normalized response-variable slope” after converting the concentrations into their decimal logarithm. The results were analyzed using Student’s test and a two-way analysis of variance (ANOVA), and a multiple comparison of all data was performed using Tukey’s multiple comparisons test. p < 0.0001 was considered significant.

Test [4] is described as follows: DPPH radical scavenging test (spectrophotometric, 517 nm). Conditions: for EC50 (g Antioxidant/kg DPPH°): EC50 expressed as weight of antioxidant per kg of DPPH radical; for EC50: concentration scavenging 50% of DPPH, 90% MeOH, 30 min, mean ± SD. On the procedure: Radical scavenging capacity, as an indicator of the antioxidant capacity of compounds against 1,1-diphenyl-2-picrylhydrazyl (DPPH) free radicals and 2,2-azinobis (3-ethyl- enzothiazoline-6-sulfonic acid), ABTS•+ radical cations, was determined using a spectrophotometric assay. Antiradical capacity analysis was performed either on pure MeOH for ABTS or the mixture of MeOH/distilled water (90:10 v/v) for DPPH. For both ABTS and DPPH assays, the stock solutions of complexes were prepared in DMSO. Quercetin was used as an antioxidant standard in the DPPH and ABTS•+ scavenging tests. […] EC50 values were estimated using nonlinear regression. A lower EC50 value indicates higher antiradical activity.
The DPPH assay was performed according to the method developed by Brand-Williams et al. slightly modified. A solution of 1 mM DPPH in 90% (v/v) methanol was stirred for 40 min. The absorbance of the solution was adjusted to 0.650 ± 0.020 at 517 nm using fresh 90% (v/v) methanol. Then, 0.02 mL of quercetin taken as a standard or sample was mixed with 1.98 mL of DPPH solution and incubated for 30 min in the dark covered with aluminum foil. When reacting with an antioxidant, the DPPH• radical is converted into DPPH, and its color changes from purple to yellow. The antioxidant effect may be easily evaluated by observing the decrease in visible absorption. The absorbance decrease was monitored at 517 nm after 30 min of incubation with a Hewlett Packard 8453 spectrophotometer. The control consisted of 0.02 mL of DMSO in 1.98 mL of DPPH solution. A similar formula (Equation (1)) was applied to determine the DPPH radical scavenging activity.
as §1
(The DPPH test is a chemical assay of radical scavenging.)

Test [5] in a line: ABTS radical scavenging test (spectrophotometric, 734 nm). On the procedure:
Radical scavenging capacity, as an indicator of the antioxidant capacity of compounds against 1,1-diphenyl-2-picrylhydrazyl (DPPH) free radicals and 2,2-azinobis (3-ethyl- enzothiazoline-6-sulfonic acid), ABTS•+ radical cations, was determined using a spectrophotometric assay. Antiradical capacity analysis was performed either on pure MeOH for ABTS or the mixture of MeOH/distilled water (90:10 v/v) for DPPH. For both ABTS and DPPH assays, the stock solutions of complexes were prepared in DMSO. Quercetin was used as an antioxidant standard in the DPPH and ABTS•+ scavenging tests. EC50 is defined as the concentration of compound (µM) required to scavenge 50% of ABTS•+ or DPPH radicals. EC50 values were estimated using nonlinear regression. A lower EC50 value indicates higher antiradical activity.
The ABTS assay was based on the method described by Re et al.. For the generation of ABTS•+ radicals, sodium persulfate (2.45 mM) aqueous solution was mixed with ABTS (7 mM) and incubated overnight in the dark to obtain a dark colored solution. The stock solution of ABTS•+ was then diluted by adding pure methanol (100%) to obtain an absorbance of 0.70 (±0.02) at 734 nm at 30 °C. An aliquot of 0.02 mL of tested compound was added to 1.98 mL of ABTS•+, and the decrease in absorbance was monitored at 734 nm after 30 min [80]. During this reaction, the blue green ABTS radical cation is converted back into its colorless neutral form in the presence of the potential antioxidant molecule. A control consisted of 0.02 mL of DMSO in 1.98 mL of ABTS•+ solution. The reducing capacity was determined according to the following formula:% inhibition = (A control − A Sample) × 100/A Control (1)
as §1

Details of test [6]: method as in earlier work. Conditions: values reported in the literature ref 60; read-out: EC50 ABTS, literature values; cited from earlier work.
The mark [7] stands for this setting: concentration scavenging 50% of ABTS•+, MeOH, 30 min, mean ± SD.

Like-named read-outs stand apart in the source and are kept apart here.

`Oc1cc(O)c2c(c1)O[C@H](c1ccc(O)c(O)c1)[C@H](O)C2` [epicatechin]: the IC50 in test [1] (flavonoid comparison ref 63, read-out: IC50 DPPH, literature value) is 15.7 µM.

`CC(=O)Oc1cc[c]([Pd@SP2]([Br])([PH](c2ccccc2)(c2ccccc2)c2ccccc2)[PH](c2ccccc2)(c2ccccc2)c2ccccc2)cc1` [Complex 5, Trans-Bromo(4-acethoxyphenyl)bis(triphenylphosphine)Palladium]: in test [2], the “AE (antiradical efficiency)” value is recorded as 0.0264 ×10^−3, the “Classification of antiradical efficiency” value was “Low” and the TEC50 is 58 min. Moreover, the EC50 in test [3] worked out at 5.28 ± 2.3 µM. Besides, in test [4], the “EC50 (g Antioxidant/kg DPPH°)” value came to 653.57 ± 20 g Antioxidant/kg DPPH° and the EC50 worked out at 15.5 ± 0.96 µM. This compound also yielded an EC50 in test [5] (setting [7]) of 0.1358 ± 0.00025 mM. For the same compound, the EC50 in test [5] (value given in text in mM) came out at 0.135 mM.

For the compound `[I][Pd]([c]1ccccc1)([PH](c1ccccc1)(c1ccccc1)c1ccccc1)[PH](c1ccccc1)(c1ccccc1)c1ccccc1` [Complex 7, Trans-Iodo(phenyl)bis(triphenylphosphine)Palladium], in test [2], the “AE (antiradical efficiency)” value was 0.0081 ×10^−3, the “Classification of antiradical efficiency” value is on record as “Low” and the TEC50 amounted to 66 min. In test [3], the “Effect on chemiluminescence at lowest concentrations” value (from here on “Effect on chemiluminescence”) is “weak effect” and the EC50 is 67 ± 20.1 µM. For the same compound, in test [4], the “EC50 (g Antioxidant/kg DPPH°)” value is 1882.11 ± 37 g Antioxidant/kg DPPH° and the EC50 came out at 45.1 ± 0.95 µM. Also, in test [5] (100 µM), the “Activity against the ABTS radical” value was “good activity”. This compound gave an EC50 in test [5] (setting [7]) of 0.00614 ± 0.00094 mM.

Regarding `CC(=O)Oc1cc[c]([Pd@SP2]([I])([PH](c2ccccc2)(c2ccccc2)c2ccccc2)[PH](c2ccccc2)(c2ccccc2)c2ccccc2)cc1` [Complex 4, Trans-Iodo(4-acethoxyphenyl)bis(triphenylphosphine)Palladium], in test [2], the “AE (antiradical efficiency)” value is listed as 0.0002 ×10^−3, the “Classification of antiradical efficiency” value is “Low” and the TEC50 came to 78 min. Also, in test [3], the “Effect on chemiluminescence” value is “weak effect” and the EC50 came to 11.3 ± 3.3 µM. Besides, in test [4], the “EC50 (g Antioxidant/kg DPPH°)” value is 82,194.89 ± 33 g Antioxidant/kg DPPH° and it took 1840.8 ± 0.44 µM to reach a half-maximal effect (EC50). Moreover, the IC50 in test [4] (value given in text in mM) turned out to be 1.84 mM. The compound further displayed a concentration for a half-maximal effect (EC50) in test [5] (setting [7]) of 0.0109 ± 0.00095 mM.

As for `O=c1c(O)c(-c2ccc(O)c(O)c2)oc2cc(O)cc(O)c12` [Qrcn, Quercetin, reference compound], the “EC50 (g antioxidant per Kg of DPPH), literature value” in test [1] was 84 ± 6 g/kg. Besides, in test [2], the “AE (antiradical efficiency)” value is 0.1873 ×10^−3, the “Classification of antiradical efficiency” value is “Low” and the TEC50 was 61 min. In test [3], the “Effect on chemiluminescence” value is “weak effect” and the EC50 turned out to be 7.06 ± 2.56 µM. Also, in test [4], the “EC50 (g Antioxidant/kg DPPH°)” value is given as 87.98 ± 15 g Antioxidant/kg DPPH° and the EC50 turned out to be 5.79 ± 1 µM. Also, the 50% effective concentration (EC50) in test [5] (setting [7]) was found to be 0.00556 ± 0.00097 mM. Besides, the EC50 in test [6] is about 15 µM.

Usually IC50 stands for the concentration that gives 50% inhibition. As usually defined, the EC50 is the midpoint of the concentration-response curve.

The values are drawn from PMC11901561, “Free Radical Scavenging Activity and Inhibition of Enzyme-Catalyzed Oxidation by trans-aryl-Palladium Complexes” (Molecules, 2025).
